Results from US20230183241A1, “CRYSTAL OF A HYPOXANTHINE COMPOUND” (Kissei Pharmaceutical Co., Ltd., priority 2020, published 2023).
Where two headings read alike, the source gives them in different places.

What was measured:
[1] = target: T1, human PHD2184-418 (Homo sapiens, UniProt Q9GZT9); experiment: PHD2 inhibitory test (fluorescence polarization, FITC-labeled HIF-1α556-574); conditions: human PHD2 binding inhibitory activity; 2 μM 2-oxoglutarate, 37° C., 60 minutes
T1 construct: containing amino acid residues 184 to 418 of the protein represented by CAC42509; histidine tag (N); made in house; host or cells: E. coli BL21 (DE3), pET-30a(+) vector
T1 sequence (Q9GZT9 184-418): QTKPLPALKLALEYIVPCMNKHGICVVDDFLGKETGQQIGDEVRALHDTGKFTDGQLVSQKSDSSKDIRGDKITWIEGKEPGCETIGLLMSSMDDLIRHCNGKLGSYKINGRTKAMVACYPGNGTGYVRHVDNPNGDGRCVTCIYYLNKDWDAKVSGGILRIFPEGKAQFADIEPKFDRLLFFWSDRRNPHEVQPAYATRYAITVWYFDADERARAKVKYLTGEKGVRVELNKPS
Procedure: Test Example 1 PHD2 Inhibitory Test
(1) Expression and preparation of human PHD2184-418
Human PHD2184-418 containing amino acid residues 184 to 418 of the protein represented by CAC42509 (GenBank accession ID) was expressed and prepared by the following method.
An expression construct of human PHD2184-418 containing N-terminal histidine tag was introduced into pET-30α (+) vector, and the sequence was confirmed. This vector was introduced into BL21 (DE3) strain and cultured at 37° C. in LB medium containing antibiotics. After culturing, a cell lysis solution was added to the cells, and then the cells were disrupted and suspended by sonication. The disrupted suspension was centrifuged and the supernatant was purified by Ni column to give human PHD2184-418.
Human HIF-1α556-574 (FITC-labeled HIF-1α556-574), containing FITC-Ahx at the N-terminal of HIF-1α556-574 containing amino acid residues 556 to 574 (partial peptide) of human HIF-1α was used as a substrate. Using FITC-labeled HIF-1α556-574, the competitive inhibition between 2-oxoglutarate and the test compound (PHD inhibitor) was evaluated based on the change in fluorescence polarization of FITC-labeled HIF-1α556-574 by the following method.
An enzyme (human PHD2184-418) and the substrate were diluted with an assay buffer (pH 7.4) containing 10 mM HEPES, 150 mM NaCl, 10 μM MnCl2-4H2O, 2 μM 2-oxoglutarate and 0.05% Tween-2θ. […]

[2] = tested on: TNBS induced colitis model rat; experiment: Therapeutic effect in colitis model: suppression of intestinal permeability (FITC); type: in vivo; conditions: 3 mg/kg orally once a day for 3 days, serum FITC
Procedure: Test Example 2 Therapeutic Effect in Colitis Model
(1) TNBS Induced Colitis Model Rat
Thus, the suppressive effect on the intestinal permeability based on oral administration of the test compound was evaluated as an indicator of medicinal efficacy.
SD male rats: 8-week-old SLC (Japan SLC) were used. Under pentobarbital anesthesia, 300 μL of TNBS (28 mg/mL) which was prepared by 50% ethanol was administered at a point 8 cm from the anus in the large intestine to cause inflammation. To the solvent-treated group was administrated 300 μL of 50% ethanol. Animals were fasted for 48 hours prior to administration of TNBS. The test compound (3 mg/kg) prepared by 0.05% methylcellulose solution was orally administered once a day from the next day, and it was administered for a total of 3 days. After administering for 3 days, 50 mg/kg FITC was orally administered 4 hours after the administration of the test compound. Blood samples were collected from jugular vein under isoflurane anesthesia after 4 hours. The serum was centrifuged and fluorescence intensity was detected by PHERAstar FSX (BMG Labtech) to measure the concentration of FITC permeating into circulating blood through the mesentery. The suppressive rate on the intestinal permeability of the test compound was calculated based on the value of the test substance-free group as 0 and the value of the TNBS-untreated group as 100.

[3] = Rat PK study: concentration of compounds in large intestine tissue and plasma; type: in vivo; conditions: male, SD, 3 mg/kg oral
Procedure: Test Example 3 Concentration of Compounds in Large Intestine Tissue
The test compound (3 mg/kg/5 mL) prepared with 0.05% methylcellulose was orally administered to non-fasted rats (SD, 8-week-old, male, Japan SLC). Blood samples were collected from jugular vein at 0.25, 0.5, 1, 2, 4, 6 and 8 hours after the administration. Laparotomy was performed under isoflurane anesthesia and large intestine was isolated. The collected distal large intestine (about 5 cm) was cut open, and then the large intestine extracted was washed with saline on a dish. After washing, the large intestine was minced with small scissors. About 150 mg thereof was moved to a tube. To the tube was added 100 μL of saline, and the mixture was homogenized using shake master (1000 rpm×30 minutes). Samples were prepared by the addition with quadruple volume of saline as the final volume. The concentrations of the test compound in the large intestine tissue and the plasma were measured through a quantitative analysis using liquid chromatography-mass spectrometry (LC/MS).
As the comparative example, a compound described as example 55 in US2015/0239889 (WO2014/030716) (Compound A) was used.
Symbols in the table have the following meanings. Compound A: comparative example Cmax: maximum plasma concentration of the test compound in the case of oral administration (ng/mL) AUC: area under the plasma test compound concentration-time curve (ng*min/mL) Plasma: plasma test compound concentration after 8 hours (ng/mL) Colon: concentration of the test compound in the large intestine tissue after 8 hours (ng/g) C/P: ratio of the above Colon and Plasma

[4] = Solid stability test; type: physicochemical; conditions: open condition at 40° C., 1 month; for Amount of the mass change of the compound 1: HPLC area normalization; for Crystal form change: powder X-ray diffraction; for Properties: appearance White powder
Procedure: Test Example 4: Solid Stability Test
Physicochemical stability and chemical stability for crystals of compound 1 (crystal forms I to IV) were examined.
Physicochemical stability: Each crystal was stored under open condition at 40° C. The powder X-ray diffraction of the sample was measured at the initial point and 1 month later, and the change in crystal form was confirmed. The change in properties was also observed at the same time. Chemical stability: Each crystal was stored under open condition at 40° C. The mass of the compound 1 was measured under the following HPLC measurement conditions at the initial point and 1 month later. [HPLC conditions] Detector: Ultraviolet and visible absorptiometer/wavelength: 225 nm
Column: L-column2 ODS, 3 μm, 4.6×150 mm (Chemicals Evaluation and Research Institute)
Column temperature: Constant temperature around 40° C. Flow rate: 1.0 mL/min Mobile phase A: A solution which was prepared with phosphoric acid to pH 2.3 after dissolving potassium dihydrogen phosphate in water to 20 mmol/L Mobile phase B: Acetonitrile Mobile phase ratios 0 to 30 minutes: mobile phase A/mobile phase B=81/19 30 to 50 minutes: mobile phase A/mobile phase B=81/19 to 25/75 50 to 55 minutes: mobile phase A/mobile phase B=25/75 55 to 55.01 minutes: mobile phase A/mobile phase B=25/75 to 81/19 55.01 to 75 minutes: mobile phase A/mobile phase B=81/19 Amount of injection: 5 μL Sample cooler: 4° C. Dissolution solvent: Mixed solution (mobile phase A/acetonitrile=75/25) Sample solution: Sample was dissolved in dissolution solvent and adjusted to about 1.0 mg/mL
Excluding the peaks derived from the blank, the peak areas of the compound 1 and an analogous substance were measured by automatic integration, and the mass of the compound 1 was calculated by area normalization method. Further, the amount of the mass change of the compound 1 after the storage was calculated.

| SMILES | IC50 [1] [nM] | concentration at 8 h ([3]; large intestine tissue (distal), read-out: Colon: concentration in the large intestine tissue after 8 hours) [ng/g] | Kp at 8 h ([3]; large intestine tissue / plasma, read-out: C/P: ratio of Colon and Plasma) | concentration at 8 h ([3]; plasma, read-out: Plasma: plasma test compound concentration after 8 hours) [ng/mL] | Amount of the mass change of the compound 1 [4] [%] | Crystal form change [4] | Properties [4] | Inhibition (suppressive rate on the intestinal permeability, mean) [2] [%] |
| --- | --- | --- | --- | --- | --- | --- | --- | --- |
| COc1ccc(Cn2cnc3nc(-n4cc(C(=O)O)cn4)[nH]c(=O)c32)cc1 [Compound 1, 1-(7-(4-Methoxybenzyl)-6-oxo-6,7-dihydro-1H-purin-2-yl)-1H-pyrazole-4-carboxylic acid] | 440 | 209 | > 209 | < 1 | – | – | – | 83 |
| COc1ccc(Cn2cnc3nc(-n4cc(C(=O)O)cn4)[nH]c(=O)c32)cc1 [Crystal form I of the compound 1, 1-(7-(4-Methoxybenzyl)-6-oxo-6,7-dihydro-1H-purin-2-yl)-1H-pyrazole-4-carboxylic acid] | – | – | – | – | −0.05 | No change | no change | – |
| COc1ccc(Cn2cnc3nc(-n4cc(C(=O)O)cn4)[nH]c(=O)c32)cc1 [Crystal form II of the compound 1, 1-(7-(4-Methoxybenzyl)-6-oxo-6,7-dihydro-1H-purin-2-yl)-1H-pyrazole-4-carboxylic acid] | – | – | – | – | 0.03 | No change | no change | – |

Now from value to compound, other results behind:

| IC50 [1] [nM] | concentration at 8 h ([3]; large intestine tissue (distal), read-out: Colon: concentration in the large intestine tissue after 8 hours) [ng/g] | Kp at 8 h ([3]; large intestine tissue / plasma, read-out: C/P: ratio of Colon and Plasma) | concentration at 8 h ([3]; plasma, read-out: Plasma: plasma test compound concentration after 8 hours) [ng/mL] | Amount of the mass change of the compound 1 [4] [%] | Crystal form change [4] | Properties [4] | SMILES | Inhibition (suppressive rate on the intestinal permeability, mean) [2] [%] |
| --- | --- | --- | --- | --- | --- | --- | --- | --- |
| – | – | – | – | 0.00 | No change | no change | COc1ccc(Cn2cnc3nc(-n4cc(C(=O)O)cn4)[nH]c(=O)c32)cc1 [Crystal form III of the compound 1, 1-(7-(4-Methoxybenzyl)-6-oxo-6,7-dihydro-1H-purin-2-yl)-1H-pyrazole-4-carboxylic acid] | – |
| – | – | – | – | 0.00 | No change | no change | COc1ccc(Cn2cnc3nc(-n4cc(C(=O)O)cn4)[nH]c(=O)c32)cc1 [Crystal form IV of the compound 1, 1-(7-(4-Methoxybenzyl)-6-oxo-6,7-dihydro-1H-purin-2-yl)-1H-pyrazole-4-carboxylic acid] | – |
